Data: US20250064945A1 (Arvinas Operations, Inc., priority 2021, published 2025)

Target: T1, BRM (Homo sapiens, UniProt P51531)
T1 construct: In-Cell Western Screen of BRM Degradation in SW1573 Cells; endogenous in cells; host or cells: SW1573 cells
Test: Western blot / In-Cell Western screen of BRM degradation in SW1573 cells
Assay type: cell-based
Settings: overnight (18-20 hours) treatment; for Dmax: read-out: Dmax (%) (% degraded)
Outline: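 SW1573 cells treated overnight (18-20 hours) with compound at 0.1% final DMSO. BRM measured either by Western blot of RIPA lysates with alpha-tubulin control and chemiluminescent detection, or by In-Cell Western on fixed, permeabilized cells with LI-COR dual-channel read against alpha-tubulin; Dmax and DC50 derived.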

T1 sequence (P51531 whole entry): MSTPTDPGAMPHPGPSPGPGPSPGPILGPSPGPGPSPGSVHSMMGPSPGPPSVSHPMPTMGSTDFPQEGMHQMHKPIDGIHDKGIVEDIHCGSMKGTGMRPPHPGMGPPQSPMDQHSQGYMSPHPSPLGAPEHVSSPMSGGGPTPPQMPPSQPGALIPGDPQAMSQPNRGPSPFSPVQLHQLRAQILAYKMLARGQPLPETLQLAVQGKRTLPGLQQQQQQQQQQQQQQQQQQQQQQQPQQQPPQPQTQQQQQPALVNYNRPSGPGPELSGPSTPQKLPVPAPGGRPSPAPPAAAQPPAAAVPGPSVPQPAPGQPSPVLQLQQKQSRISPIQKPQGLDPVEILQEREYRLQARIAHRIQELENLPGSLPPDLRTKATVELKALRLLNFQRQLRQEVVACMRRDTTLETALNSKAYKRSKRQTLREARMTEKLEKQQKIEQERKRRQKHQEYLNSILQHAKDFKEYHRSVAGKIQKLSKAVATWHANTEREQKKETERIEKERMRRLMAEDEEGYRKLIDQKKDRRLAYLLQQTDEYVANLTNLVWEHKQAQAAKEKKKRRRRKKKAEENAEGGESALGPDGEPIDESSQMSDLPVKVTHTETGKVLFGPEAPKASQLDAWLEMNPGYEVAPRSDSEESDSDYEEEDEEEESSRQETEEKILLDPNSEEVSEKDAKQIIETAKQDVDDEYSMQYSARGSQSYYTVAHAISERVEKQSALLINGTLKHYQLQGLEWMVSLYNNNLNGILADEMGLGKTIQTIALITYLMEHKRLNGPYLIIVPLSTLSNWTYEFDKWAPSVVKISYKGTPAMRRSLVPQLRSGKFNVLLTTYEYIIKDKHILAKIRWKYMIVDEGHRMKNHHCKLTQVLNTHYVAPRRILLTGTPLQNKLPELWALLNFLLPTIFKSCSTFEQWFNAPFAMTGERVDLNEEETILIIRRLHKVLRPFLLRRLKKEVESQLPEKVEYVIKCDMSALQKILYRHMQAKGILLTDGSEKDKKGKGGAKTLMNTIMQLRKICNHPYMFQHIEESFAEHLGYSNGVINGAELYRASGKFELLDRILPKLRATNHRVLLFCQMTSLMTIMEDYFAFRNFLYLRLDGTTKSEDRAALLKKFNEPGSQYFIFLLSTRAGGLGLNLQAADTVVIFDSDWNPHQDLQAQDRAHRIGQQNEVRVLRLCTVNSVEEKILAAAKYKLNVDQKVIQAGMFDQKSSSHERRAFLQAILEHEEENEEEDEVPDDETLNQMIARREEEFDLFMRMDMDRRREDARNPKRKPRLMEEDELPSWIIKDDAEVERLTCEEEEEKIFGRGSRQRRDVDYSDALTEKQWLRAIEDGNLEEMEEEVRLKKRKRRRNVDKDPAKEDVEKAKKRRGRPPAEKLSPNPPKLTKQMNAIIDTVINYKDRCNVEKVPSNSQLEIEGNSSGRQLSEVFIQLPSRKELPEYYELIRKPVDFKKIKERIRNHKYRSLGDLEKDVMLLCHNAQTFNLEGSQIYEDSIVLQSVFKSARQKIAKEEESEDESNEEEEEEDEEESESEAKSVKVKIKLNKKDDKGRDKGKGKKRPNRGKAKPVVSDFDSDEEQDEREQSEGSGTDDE

Structure (SMILES)	DC50 [nM]	Dmax [%]
Cc1ncsc1-c1ccc([C@H](C)NC(=O)[C@@H]2C[C@@H](O)CN2C(=O)[C@@H](c2cc(N3CCC(CN4CCC(O[C@H]5C[C@H](C#Cc6cn7cc(-c8ccccc8O)nc7nc6N)C5)CC4)CC3)no2)C(C)C)cc1 [Compound 28, (2S,4R)-4-hydroxy-N-[(1S)-1-[4-(4-methyl-1,3-thiazol-5-yl)phenyl]ethyl]-1-[(2R)-3-methyl-2-{3-[4-({4-[(1r,3r)-3-(2-[7-amino-2-(2-hydroxyphenyl)imidazo[1,2-a]pyrimidin-6-yl]ethynyl}cyclobutoxy]piperidin-1-yl}methyl)piperidin-1-yl]-1,2-oxazol-5-yl}butanoyl]pyrrolidine-2-carboxamide]	< 2.5	> 75
Cc1ncsc1-c1ccc([C@H](C)NC(=O)[C@@H]2C[C@@H](O)CN2C(=O)[C@@H](c2cc(N3CCC(CN4CCC(O[C@H]5C[C@H](N6CCC(CN7CC8(C7)CN(c7cc(-c9ccccc9O)nnc7N)CCN8C)CC6)C5)CC4)CC3)no2)C(C)C)cc1 [Compound 27, (2S,4R)-4-hydroxy-N-[(1S)-1-[4-(4-methyl-1,3-thiazol-5-yl)phenyl]ethyl]-1-[(2R)-3-methyl-2-{3-[4-({4-[(1r,3r)-3-[4-({8-[3-amino-6-(2-hydroxyphenyl)pyridazin-4-yl]-5-methyl-2,5,8-triazaspiro[3.5]nonan-2-yl}methyl)piperidin-1-yl]cyclobutoxy]piperidin-1-yl}methyl)piperidin-1-yl]-1,2-oxazol-5-yl}butanoyl]pyrrolidine-2-carboxamide]	2.5 to 10	> 75
Cc1ncsc1-c1ccc([C@H](C)NC(=O)[C@@H]2C[C@@H](O)CN2C(=O)[C@@H](c2cc(N3CCC(CN4CCC(O[C@H]5C[C@H](Oc6cc(N7CCN(c8cc(-c9ccccc9O)nnc8N)CC78CC8)ccn6)C5)CC4)CC3)no2)C(C)C)cc1 [Compound 6, (2S,4R)-4-hydroxy-N-[(1S)-1-[4-(4-methyl-1,3-thiazol-5-yl)phenyl]ethyl]-1-[(2R)-3-methyl-2-{3-[4-({4-[(1r,3r)-3-[(4-{7-[3-amino-6-(2-hydroxyphenyl)pyridazin-4-yl]-4,7-diazaspiro[2.5]octan-4-yl}pyridin-2-yl)oxy]cyclobutoxy]piperidin-1-yl}methyl)piperidin-1-yl]-1,2-oxazol-5-yl}butanoyl]pyrrolidine-2-carboxamide]	< 2.5	> 75
Cc1ncsc1-c1ccc([C@H](C)NC(=O)[C@@H]2C[C@@H](O)CN2C(=O)[C@@H](c2cc(N3CCC(CN4CCC(O[C@H]5C[C@H](n6ccc(CN7C8CCC7CN(c7cc(-c9ccccc9O)nnc7N)C8)n6)C5)CC4)CC3)no2)C(C)C)cc1 [Compound 14, (2S,4R)-4-hydroxy-N-[(1S)-1-[4-(4-methyl-1,3-thiazol-5-yl)phenyl]ethyl]-1-[(2R)-3-methyl-2-{3-[4-({4-[(1r,3r)-3-[3-({3-[3-amino-6-(2-hydroxyphenyl)pyridazin-4-yl]-3,8-diazabicyclo[3.2.1]octan-8-yl}methyl)-1H-pyrazol-1-yl]cyclobutoxy]piperidin-1-yl}methyl)piperidin-1-yl]-1,2-oxazol-5-yl}butanoyl]pyrrolidine-2-carboxamide]	≥ 30	
CC(C)[C@@H](C(=O)N1C[C@H](O)C[C@H]1C(=O)N[C@@H](C)c1ccc(-c2ccnn2C)cc1)c1cc(OCCN2CCN(Cc3ccc(C/C=C/c4cn5cc(-c6ccccc6O)nc5nc4N)cc3)CC2)no1 [Compound 46, (2S,4R)-1-[(2R)-2-(3-{2-[4-({4-[(2E)-3-[7-amino-2-(2-hydroxyphenyl)imidazo[1,2-a]pyrimidin-6-yl]prop-2-en-1-yl]phenyl}methyl)piperazin-1-yl]ethoxy}-1,2-oxazol-5-yl)-3-methylbutanoyl]-4-hydroxy-N-[(1S)-1-[4-(1-methyl-1H-pyrazol-5-yl)phenyl]ethyl]pyrrolidine-2-carboxamide]	2.5 to 10	> 75
CC(C)[C@@H](C(=O)N1C[C@H](O)C[C@H]1C(=O)N[C@@H](C)c1ccc(-c2ccnn2C)cc1)c1cc(N2CCC(CN3CCC(O[C@H]4C[C@H](OCC#Cc5cn6cc(-c7ccccc7O)nc6nc5N)C4)CC3)CC2)no1 [Compound 32]	< 2.5	> 75
CC(C)[C@@H](C(=O)N1C[C@H](O)C[C@H]1C(=O)N[C@@H](C)c1ccc(C#N)cc1)c1cc(OCCN2CCC(O[C@H]3C[C@@H](Oc4cc(N5CCN(c6cc(-c7ccccc7O)nnc6N)CC56COC6)ccn4)C3)CC2)no1 [Compound 24, (2S,4R)-N-[(1S)-1-(4-cyanophenyl)ethyl]-4-hydroxy-1-[(2R)-3-methyl-2-[3-(2-{4-[(1r,3r)-3-[(4-{8-[3-amino-6-(2-hydroxyphenyl)pyridazin-4-yl]-2-oxa-5,8-diazaspiro[3.5]nonan-5-yl}pyridin-2-yl)oxy]cyclobutoxy]piperidin-1-yl}ethoxy)-1,2-oxazol-5-yl]butanoyl]pyrrolidine-2-carboxamide]	< 2.5	> 75
Cc1ncsc1-c1ccc([C@H](C)NC(=O)[C@@H]2C[C@@H](O)CN2C(=O)[C@@H](c2cc(N3CCC(CN4CCC(O[C@H]5C[C@H](Oc6cc(N7CCN(c8cc(-c9ccccc9O)nnc8N)CC78COC8)ccn6)C5)CC4)CC3)no2)C(C)C)cc1 [Compound 4, (2S,4R)-4-hydroxy-N-[(1S)-1-[4-(4-methyl-1,3-thiazol-5-yl)phenyl]ethyl]-1-[(2R)-3-methyl-2-{3-[4-({4-[(1r,3r)-3-[(4-{8-[3-amino-6-(2-hydroxyphenyl)pyridazin-4-yl]-2-oxa-5,8-diazaspiro[3.5]nonan-5-yl}pyridin-2-yl)oxy]cyclobutoxy]piperidin-1-yl}methyl)piperidin-1-yl]-1,2-oxazol-5-yl}butanoyl]pyrrolidine-2-carboxamide]	< 2.5	> 75
Cc1ncsc1-c1ccc([C@H](C)NC(=O)[C@@H]2C[C@@H](O)CN2C(=O)[C@@H](c2cc(N3CCC(CN4CCC(O[C@H]5C[C@H](N6CCC(O[C@H]7C[C@H](C#Cc8cc(-c9ccccc9O)nnc8N)C7)CC6)C5)CC4)CC3)no2)C(C)C)cc1 [Compound 5, (2S,4R)-4-hydroxy-N-[(1S)-1-[4-(4-methyl-1,3-thiazol-5-yl)phenyl]ethyl]-1-[(2R)-3-methyl-2-{3-[4-({4-[(1r,3r)-3-(4-[(1r,3r)-3-{2-[3-amino-6-(2-hydroxyphenyl)pyridazin-4-yl]ethynyl}cyclobutoxy]piperidin-1-yl}cyclobutoxy]piperidin-1-yl}methyl)piperidin-1-yl]-1,2-oxazol-5-yl}butanoyl]pyrrolidine-2-carboxamide]	< 2.5	> 75
CC(C)[C@@H](C(=O)N1C[C@H](O)C[C@H]1C(=O)N[C@@H](C)c1ccc(-c2ccnn2C)cc1)c1cc(N2CCC(CN3CCC(O[C@H]4C[C@H](C#Cc5cn6cc(-c7ccccc7O)nc6nc5N)C4)CC3)CC2)no1 [Compound 33]	< 2.5	> 75
Cc1nccn1-c1ccc([C@H](C)NC(=O)[C@@H]2C[C@@H](O)CN2C(=O)[C@H](c2cc(OCCN3CCN(CCOc4cc(N5CCN(c6cc(-c7ccccc7O)nnc6N)CC56COC6)ccn4)CC3)no2)C(C)C)cc1 [Compound 21, (2S,4R)-1-[(2S)-2-{3-[2-(4-{2-[(4-{8-[3-amino-6-(2-hydroxyphenyl)pyridazin-4-yl]-2-oxa-5,8-diazaspiro[3.5]nonan-5-yl}pyridin-2-yl)oxy]ethyl}piperazin-1-yl)ethoxy]-1,2-oxazol-5-yl}-3-methylbutanoyl]-4-hydroxy-N-[(1S)-1-[4-(2-methyl-1H-imidazol-1-yl)phenyl]ethyl]pyrrolidine-2-carboxamide]	≥ 30	
